Laboratory results reported in ChEMBL document CHEMBL1201862, “PubChem BioAssay data set” (2004).
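1) Cells in 96-well plates. 2) Compound, 48 h, 5 concentrations. 3) Linear interpolation between surrounding doses. 4) Unreached endpoint = highest concentration. At the GI50, growth is halved.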 The source made the active and inactive calls. Cut-off read from the data, not from the text of the source: active = GI50 up to about 1.1 µM and inactive = higher. Where a SMILES comes first, the peptide text is derived from it. [ ]: non-standard residue; d: D form. The star is where a group is joined. ξ: configuration not given here. ξF = NC(Cc1ccccc1)C(=O)O; Cbz = O=C(OCc1ccccc1)*; Aib = CC(C)(N)C(=O)O; NHNH2 = NN*

Columns and labels:
Assay in all cases: DTP human tumour cell line panel, 48 h
[1] = tested on: SW-620
[2] = tested on: SF-268
[3] = tested on: SK-MEL-28
[4] = tested on: LOX IMVI
[5] = tested on: A498
[6] = tested on: HOP-62
[7] = tested on: EKVX
[8] = tested on: MDA-MB-435
[9] = tested on: SF-539
[10] = tested on: HCT-116
[11] = tested on: ACHN
[12] = tested on: DU-145
[13] = tested on: CCRF-CEM
[14] = tested on: Malme-3M
[15] = tested on: IGROV-1
[16] = tested on: SN12C
[17] = tested on: RPMI-8226
[18] = tested on: SK-MEL-2
[19] = tested on: KM12

Measured: GI50

O=C1CCc2cc([N+](=O)[O-])ccc2O1
inactive: [1] > 100 µM | [2] > 100 µM | [3] > 100 µM | [4] > 100 µM | [5] > 100 µM | [6] > 100 µM | [7] > 100 µM | [8] > 100 µM | [9] > 100 µM | [10] > 100 µM | [11] > 100 µM | [12] > 100 µM | [13] > 100 µM | [14] > 100 µM | [15] > 100 µM | [16] > 100 µM | [17] > 100 µM | [18] > 100 µM

COc1ccc(-n2c(N)c(C#N)c(C#N)c2-c2cccc([N+](=O)[O-])c2)cc1
inactive: [1] > 100 µM | [2] 51.9 µM | [19] 62.5 µM | [4] 48.3 µM | [5] > 100 µM | [6] 67.5 µM | [7] 26 µM | [8] > 100 µM | [9] 32.4 µM | [11] 91 µM | [12] 43.3 µM | [13] 5.31 µM | [14] > 100 µM | [15] 23.8 µM | [16] > 100 µM | [17] 5.37 µM | [18] 1.77 µM

CN[C@H]1CC[C@]23C[C@]24CC[C@]2(C)[C@@H]([C@H](C)N(C)C)CC[C@@]2(C)[C@@H]4CC[C@H]3C1(C)C
inactive: [1] 15.4 µM | [2] 14.4 µM | [19] 15 µM | [3] 12.4 µM | [4] 5.32 µM | [5] 20.6 µM | [7] 18.2 µM | [8] 14.1 µM | [9] 11.2 µM | [10] 11.4 µM | [11] 15.6 µM | [12] 14.4 µM | [13] 15.1 µM | [14] 17.1 µM | [15] 16.8 µM | [16] 14.3 µM | [17] 12.9 µM | [18] 18 µM

COc1cccc2c1-c1nc(N)c3c(OC)cccc3c1C2=O
inactive: [1] > 100 µM | [2] 68.4 µM | [19] 16.1 µM | [3] > 100 µM | [4] 59.7 µM | [5] > 100 µM | [6] 22.8 µM | [7] 54.1 µM | [8] > 100 µM | [9] > 100 µM | [10] > 100 µM | [12] > 100 µM | [13] > 100 µM | [14] > 100 µM | [15] > 100 µM | [16] 95.1 µM | [17] > 100 µM | [18] > 100 µM

CCOC(=O)c1cc(C2(O)CCN(CC(C)CC)C2=O)c(-c2cc(C)no2)[nH]1 (centres undefined)
inactive: [1] > 100 µM | [2] > 100 µM | [19] > 100 µM | [3] > 100 µM | [4] > 100 µM | [5] > 100 µM | [6] > 100 µM | [7] > 100 µM | [8] > 100 µM | [9] > 100 µM | [10] > 100 µM | [12] > 100 µM | [13] > 100 µM | [14] > 100 µM | [15] > 100 µM | [16] > 100 µM | [17] > 100 µM | [18] > 100 µM

COc1cc(/C=N/NC(=O)c2ccc(NC(C)=O)cc2OC)ccc1O
inactive: [1] > 100 µM | [2] 34.2 µM | [19] > 100 µM | [3] > 100 µM | [4] 47.4 µM | [5] 86.3 µM | [7] 77.6 µM | [8] > 100 µM | [9] 39.2 µM | [10] 61.8 µM | [11] 38.9 µM | [12] 69.5 µM | [13] > 100 µM | [14] > 100 µM | [15] 64 µM | [16] > 100 µM | [17] > 100 µM | [18] 26.9 µM

COc1cc(/C=C/C(=O)OC[C@H](Br)[C@H](OC(C)=O)c2ccc3c(c2)OCO3)cc(OC)c1OC
inactive: [1] > 100 µM | [2] > 100 µM | [19] > 100 µM | [3] > 100 µM | [4] > 100 µM | [5] > 100 µM | [6] > 100 µM | [7] > 100 µM | [8] > 100 µM | [9] > 100 µM | [10] > 100 µM | [11] > 100 µM | [12] > 100 µM | [13] > 100 µM | [14] > 100 µM | [15] > 100 µM | [16] > 100 µM | [17] 61.1 µM | [18] > 100 µM

COc1cccc2c3ccccc3c3nc[nH]c3c12
inactive: [1] 22.5 µM | [2] 62.1 µM | [19] 18.7 µM | [3] 19.7 µM | [4] 33.8 µM | [5] 23.1 µM | [6] 54.3 µM | [7] > 48.3 µM | [8] 31.6 µM | [9] 18.2 µM | [10] 29.8 µM | [11] 44.2 µM | [12] 46.9 µM | [13] 12.4 µM | [14] 36.1 µM | [15] 41.4 µM | [16] > 66.5 µM | [17] 21.9 µM | [18] 58.3 µM

CCOC(=O)CCN1C(=O)c2ccc(NC(=O)C(=O)O)cc2S1(=O)=O
inactive: [1] > 100 µM | [19] > 100 µM | [3] > 100 µM | [4] > 100 µM | [5] > 100 µM | [6] > 100 µM | [7] > 100 µM | [8] > 100 µM | [9] > 100 µM | [10] > 100 µM | [11] > 100 µM | [12] > 100 µM | [13] > 100 µM | [14] > 100 µM | [15] > 100 µM | [16] > 100 µM | [17] > 100 µM | [18] > 100 µM

Nc1ccc(-c2nc3ccc(F)cc3s2)cc1
inactive: [1] 51.9 µM | [2] 37.3 µM | [19] 25.2 µM | [3] 60.1 µM | [4] 28.7 µM | [5] 30 µM | [6] 29.5 µM | [7] 32 µM | [8] 25.9 µM | [9] 36.4 µM | [10] 36.6 µM | [11] 21 µM | [12] 23.7 µM | [13] 19.1 µM | [14] 51.8 µM | [16] 33 µM | [17] 18.6 µM | [18] 19.8 µM

CC(C)(NC(=O)OCc1ccccc1)C(=O)NC(Cc1ccccc1)C(=O)NN (centres undefined) (Cbz-[Aib]-[ξF]-NHNH2)
inactive: [1] > 100 µM | [2] > 100 µM | [19] > 100 µM | [3] > 100 µM | [4] > 100 µM | [5] > 100 µM | [6] > 100 µM | [7] > 100 µM | [8] > 100 µM | [9] > 100 µM | [11] > 100 µM | [12] > 100 µM | [13] > 100 µM | [14] > 100 µM | [15] > 100 µM | [16] > 100 µM | [17] > 100 µM | [18] > 100 µM
